Results from ChEMBL document CHEMBL1201862, “PubChem BioAssay data set” (2004).
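Tested at 5 concentrations; 48 h exposure; 96-well plates; endpoints linearly interpolated, else capped at highest concentration. The concentration for 50% growth inhibition is given as GI50.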 Activity calls are given as the source filed them. Rule as the data show it: active = GI50 up to about 1.1 µM and inactive = higher.

Legend:
Assay in all cases: inhibition of tumour cell growth, NCI panel, 48 h
OVCAR-3 = tested on: OVCAR-3
SNB-75 = tested on: SNB-75
DLD-1 = tested on: DLD-1
U-251 = tested on: U-251
TK-10 = tested on: TK-10
786-0 = tested on: 786-0
SN12C = tested on: SN12C
CCRF-CEM = tested on: CCRF-CEM
SK-MEL-5 = tested on: SK-MEL-5
NCI-H460 = tested on: NCI-H460
OVCAR-4 = tested on: OVCAR-4
CAKI-1 = tested on: CAKI-1
SF-295 = tested on: SF-295
A549 = tested on: A549
HOP-92 = tested on: HOP-92
SK-OV-3 = tested on: SK-OV-3
RXF 393 = tested on: RXF 393
BT-549 = tested on: BT-549
MDA-N = tested on: MDA-N
MDA-MB-435 = tested on: MDA-MB-435

| Structure (SMILES) | GI50 (OVCAR-3) | GI50 (SNB-75) | GI50 (DLD-1) | GI50 (U-251) | GI50 (TK-10) | GI50 (786-0) | GI50 (SN12C) | GI50 (CCRF-CEM) | GI50 (SK-MEL-5) | GI50 (NCI-H460) | GI50 (OVCAR-4) | GI50 (CAKI-1) | GI50 (SF-295) | GI50 (A549) | GI50 (HOP-92) | GI50 (SK-OV-3) | GI50 (RXF 393) | GI50 (BT-549) | GI50 (MDA-N) | GI50 (MDA-MB-435) |
| --- | --- | --- | --- | --- | --- | --- | --- | --- | --- | --- | --- | --- | --- | --- | --- | --- | --- | --- | --- | --- |
| COc1cc2c(cc1OC)C1Cc3ccc(OC)c(OC)c3C[N+]1([O-])CC2 (centres undefined) | > 100 µM (inactive) | > 100 µM (inactive) | > 100 µM (inactive) | > 100 µM (inactive) | > 100 µM (inactive) | > 100 µM (inactive) | > 100 µM (inactive) | > 100 µM (inactive) | > 100 µM (inactive) | > 100 µM (inactive) | > 100 µM (inactive) | > 100 µM (inactive) | > 100 µM (inactive) | > 100 µM (inactive) | – | – | – | – | – | – |
| CC(C)N(C(=O)C12C3C4C5(C(=O)O)C(C1C35I)C42C(=O)O)C(C)C (centres undefined) | > 100 µM (inactive) | 29.1 µM (inactive) | > 100 µM (inactive) | > 100 µM (inactive) | > 100 µM (inactive) | > 100 µM (inactive) | > 100 µM (inactive) | > 100 µM (inactive) | > 100 µM (inactive) | > 100 µM (inactive) | > 100 µM (inactive) | – | > 100 µM (inactive) | > 100 µM (inactive) | > 100 µM (inactive) | > 100 µM (inactive) | – | – | – | – |
| CCOP(=S)(OCC)Oc1ccc2c(c1)OC(=O)C1(Cl)C2(C)C2(Cl)C(=O)Oc3cc(OP(=S)(OCC)OCC)ccc3C12C (centres undefined) | 14.6 µM (inactive) | 16.1 µM (inactive) | 16.8 µM (inactive) | 6.35 µM (inactive) | 25.5 µM (inactive) | 21.1 µM (inactive) | 19.2 µM (inactive) | 16.9 µM (inactive) | 17 µM (inactive) | 17.5 µM (inactive) | 10.7 µM (inactive) | 19.8 µM (inactive) | 14.7 µM (inactive) | 25.5 µM (inactive) | – | – | 11.8 µM (inactive) | – | – | – |
| COC1=NCc2ccccc2-c2ccccc21 | > 100 µM (inactive) | > 100 µM (inactive) | > 100 µM (inactive) | > 100 µM (inactive) | > 100 µM (inactive) | > 100 µM (inactive) | > 100 µM (inactive) | > 100 µM (inactive) | > 100 µM (inactive) | > 100 µM (inactive) | > 100 µM (inactive) | – | > 100 µM (inactive) | > 100 µM (inactive) | – | > 100 µM (inactive) | > 100 µM (inactive) | – | – | – |
| CN(C)C(=S)/N=c1\ss/c(=N\S(=O)(=O)c2ccccc2)n1N(C)C | > 100 µM (inactive) | > 100 µM (inactive) | > 100 µM (inactive) | > 100 µM (inactive) | > 100 µM (inactive) | 45 µM (inactive) | > 100 µM (inactive) | 37.9 µM (inactive) | > 100 µM (inactive) | > 100 µM (inactive) | > 100 µM (inactive) | > 100 µM (inactive) | – | > 100 µM (inactive) | – | > 100 µM (inactive) | 9.91 µM (inactive) | – | – | – |
| Cc1ccc(-n2c3nc(=O)n(C)c(=O)c-3nc3ccccc32)c(C)c1 | 2.5 µM (inactive) | 13.3 µM (inactive) | 15 µM (inactive) | 15.8 µM (inactive) | 13.2 µM (inactive) | 5.83 µM (inactive) | 10.9 µM (inactive) | 14.8 µM (inactive) | 4.73 µM (inactive) | 3.49 µM (inactive) | 12 µM (inactive) | 27.6 µM (inactive) | 10.7 µM (inactive) | 4.74 µM (inactive) | – | 35.1 µM (inactive) | 14.6 µM (inactive) | – | – | – |
| COc1cc2c(cc1C)NC(=O)/C2=C/c1c(Cl)[nH]c2cc(C)c(OC)cc12 | 1.94 µM (inactive) | 2.34 µM (inactive) | – | 2.86 µM (inactive) | 7.1 µM (inactive) | 3.23 µM (inactive) | 1.86 µM (inactive) | 0.458 µM (active) | 2.62 µM (inactive) | 0.774 µM (active) | 5.48 µM (inactive) | 4.04 µM (inactive) | 1.21 µM (inactive) | 4.55 µM (inactive) | 10.3 µM (inactive) | 1.3 µM (inactive) | 6.81 µM (inactive) | 1.36 µM (inactive) | 2.84 µM (inactive) | 2.69 µM (inactive) |
